Assays:
Assay type in all cases: in vivo
Phytophthora infestans = assay: whole plant or invertebrate; conditions: in Solanum lycopersicum, read-out: Test F control value
Alternaia brassicicola = assay: Test Example C: Alternaria sooty spot on cabbage; conditions: Brassica oleracea; Alternaria sooty spot on cabbage; read-out: Test C control value
[1] = system: Blumeria graminis f. sp. hordei; assay: Test Example D: Powdery mildew on barley; conditions: Powdery mildew on barley, read-out: Test D control value
Puccinia recondita = assay: Test Example E: Brown rust on wheat; conditions: Brown rust on wheat, read-out: Test E control value
Magnaporthe grisea = assay: whole plant or invertebrate; conditions: Pyricularia oryzae, in Oryza sativa, read-out: Test A control value
Plasmopara viticola = assay: Test Example G: Downy mildew on vine; conditions: Downy mildew on vine, 250 ppm sprayed, 2.5 ml/pot, 7 to 10 days after inoculation, read-out: Test G control value
Botrytis cinerea = assay: Test Example B: Gray mold on tomato; conditions: Gray mold on tomato, read-out: Test B control value

**Q.** What does the source list for `CCN1C(=O)CCC(c2cccs2)=C1c1c(F)cccc1F` [compound 2, 6-(2,6-difluorophenyl)-1-ethyl-5-(thiophen-2-yl)-3,4-dihydropyridin-2(1H)-one]?
**A.** pest or weed control at 250 µg/mL (Phytophthora infestans): < 50%; pest or weed control at 250 µg/mL (Alternaia brassicicola): < 50%; pest or weed control at 250 µg/mL [1]: > 50%; pest or weed control at 250 µg/mL (Puccinia recondita): > 50%; pest or weed control at 250 µg/mL (Magnaporthe grisea): > 50%; pest or weed control at 250 ppm (Plasmopara viticola): > 50%; pest or weed control at 250 µg/mL (Botrytis cinerea): < 50%

**Q.** With `CCn1c(-c2c(F)cccc2F)c(-c2cccs2)ccc1=O` [compound 5, 6-(2,6-difluorophenyl)-1-ethyl-5-(thiophen-2-yl)pyridin-2(1H)-one] as the compound, how does the pest or weed control at 250 µg/mL (Phytophthora infestans) read?
**A.** > 50%

**Q.** What about the pest or weed control at 250 µg/mL (Alternaia brassicicola) of the same compound?
**A.** > 50%

**Q.** What about the pest or weed control at 250 µg/mL [1] of the same compound?
**A.** > 50%

**Q.** And the pest or weed control at 250 µg/mL (Puccinia recondita)?
**A.** > 50%

**Q.** What about the pest or weed control at 250 µg/mL (Magnaporthe grisea) of the same compound?
**A.** > 50%

**Q.** And the pest or weed control at 250 ppm (Plasmopara viticola)?
**A.** > 50%

**Q.** And the pest or weed control at 250 µg/mL (Botrytis cinerea)?
**A.** > 50%

**Q.** `CCn1c(-c2c(F)cccc2F)c(-c2ccc(Cl)s2)ccc1=O` [compound 6, 5-(5-chlorothiophen-2-yl)-6-(2,6-difluorophenyl)-1-ethylpyridin-2(1H)-one] was tested. Which pest or weed control at 250 µg/mL (Phytophthora infestans) did it give?
**A.** < 50%

**Q.** And the pest or weed control at 250 µg/mL (Alternaia brassicicola)?
**A.** > 50%

**Q.** And the pest or weed control at 250 µg/mL [1]?
**A.** < 50%

**Q.** What about the pest or weed control at 250 µg/mL (Puccinia recondita) of the same compound?
**A.** > 50%

**Q.** And the pest or weed control at 250 µg/mL (Magnaporthe grisea)?
**A.** > 50%

**Q.** And the pest or weed control at 250 ppm (Plasmopara viticola)?
**A.** < 50%

**Q.** And the pest or weed control at 250 µg/mL (Botrytis cinerea)?
**A.** > 50%

**Q.** How did the pest or weed control at 250 µg/mL (Phytophthora infestans) turn out when `CCn1c(-c2c(F)cccc2F)c(-c2ccc(Cl)s2)cc(Cl)c1=O` [compound 7, 3-chloro-5-(5-chlorothiophen-2-yl)-6-(2,6-difluorophenyl)-1-ethylpyridin-2(1H)-one] was run?
**A.** < 50%

**Q.** What about the pest or weed control at 250 µg/mL (Alternaia brassicicola) of the same compound?
**A.** > 50%

**Q.** And the pest or weed control at 250 µg/mL [1]?
**A.** < 50%

**Q.** And the pest or weed control at 250 µg/mL (Puccinia recondita)?
**A.** > 50%

**Q.** What about the pest or weed control at 250 µg/mL (Magnaporthe grisea) of the same compound?
**A.** > 50%

**Q.** And the pest or weed control at 250 ppm (Plasmopara viticola)?
**A.** < 50%

**Q.** What about the pest or weed control at 250 µg/mL (Botrytis cinerea) of the same compound?
**A.** > 50%

**Q.** Which results are given for `CCn1c(-c2c(F)cc(F)cc2F)c(C2OCCCO2)cc(Cl)c1=O` [compound 8, 3-chloro-5-(1,3-dioxan-2-yl)-1-ethyl-6-(2,4,6-trifluorophenyl)-pyridin-2(1H)-one]?
**A.** pest or weed control at 250 µg/mL (Phytophthora infestans): < 50%; pest or weed control at 250 µg/mL (Alternaia brassicicola): > 50%; pest or weed control at 250 µg/mL [1]: < 50%; pest or weed control at 250 µg/mL (Puccinia recondita): < 50%; pest or weed control at 250 µg/mL (Magnaporthe grisea): > 50%; pest or weed control at 250 ppm (Plasmopara viticola): > 50%; pest or weed control at 250 µg/mL (Botrytis cinerea): > 50%

**Q.** How did the pest or weed control at 250 µg/mL [1] turn out when `CCn1c(-c2c(F)cccc2F)c(-c2cccnc2Cl)ccc1=O` [compound 17] was run?
**A.** > 50%

**Q.** And the pest or weed control at 250 µg/mL (Puccinia recondita)?
**A.** > 50%

**Q.** What about the pest or weed control at 250 µg/mL (Botrytis cinerea) of the same compound?
**A.** > 50%

**Q.** `CCn1c(-c2c(F)cccc2F)c(-c2cccnc2Cl)cc(Cl)c1=O` [compound 18] was tested. Which pest or weed control at 250 µg/mL (Phytophthora infestans) did it give?
**A.** < 50%

**Q.** And the pest or weed control at 250 µg/mL (Alternaia brassicicola)?
**A.** > 50%

**Q.** What about the pest or weed control at 250 µg/mL [1] of the same compound?
**A.** > 50%

**Q.** What about the pest or weed control at 250 µg/mL (Puccinia recondita) of the same compound?
**A.** > 50%

**Q.** And the pest or weed control at 250 µg/mL (Magnaporthe grisea)?
**A.** > 50%

**Q.** What about the pest or weed control at 250 ppm (Plasmopara viticola) of the same compound?
**A.** < 50%

**Q.** What about the pest or weed control at 250 µg/mL (Botrytis cinerea) of the same compound?
**A.** > 50%

**Q.** `CCn1c(-c2c(F)cc(F)cc2F)c(-c2ccnn2C)cc(Cl)c1=O` [compound 20, 3-chloro-1-ethyl-5-(1-methyl-1H-pyrazol-5-yl)-6-(2,4,6-trifluorophenyl)pyridin-2(1H)-one] was tested. Which pest or weed control at 250 µg/mL (Phytophthora infestans) did it give?
**A.** < 50%

**Q.** And the pest or weed control at 250 µg/mL (Alternaia brassicicola)?
**A.** > 50%

**Q.** What about the pest or weed control at 250 µg/mL [1] of the same compound?
**A.** > 50%

**Q.** What about the pest or weed control at 250 µg/mL (Puccinia recondita) of the same compound?
**A.** > 50%

**Q.** What about the pest or weed control at 250 µg/mL (Magnaporthe grisea) of the same compound?
**A.** > 50%

**Q.** What about the pest or weed control at 250 ppm (Plasmopara viticola) of the same compound?
**A.** < 50%

**Q.** What about the pest or weed control at 250 µg/mL (Botrytis cinerea) of the same compound?
**A.** > 50%

**Q.** Which pest or weed control at 250 µg/mL (Phytophthora infestans) does the source give for `CCn1c(-c2c(F)cc(F)cc2F)c(-c2c(Br)cnn2C)cc(Cl)c1=O` [compound 21, 5-(4-bromo-1-methyl-1H-pyrazol-5-yl)-3-chloro-1-ethyl-6-(2,4,6-trifluorophenyl)pyridin-2(1H)-one] here?
**A.** < 50%

**Q.** What about the pest or weed control at 250 µg/mL (Alternaia brassicicola) of the same compound?
**A.** > 50%

**Q.** And the pest or weed control at 250 µg/mL [1]?
**A.** > 50%

**Q.** And the pest or weed control at 250 µg/mL (Puccinia recondita)?
**A.** > 50%

**Q.** And the pest or weed control at 250 µg/mL (Magnaporthe grisea)?
**A.** > 50%

**Q.** What about the pest or weed control at 250 ppm (Plasmopara viticola) of the same compound?
**A.** > 50%

**Q.** What about the pest or weed control at 250 µg/mL (Botrytis cinerea) of the same compound?
**A.** > 50%

Reference: patent US11178870B2 (priority 2017, dated 2021)
